Results as given in patent US10961219B2, “Derivatives and their use as selective inhibitors of caspase-2” (priority 2016, dated 2021).
Residues, ends and D or L forms follow the SMILES beside them. *: point of attachment. X1 = O=C(O)C[C@H](N*)C(=O)COc1c(F)cccc1F; Quinaldoyl = O=C(c1ccc2ccccc2n1)*

Experiments:
HeLa cells = assay: Protection against cellular death induced by vincristine, propidium iodide flow cytometry; assay type: cell-based, human; conditions: compound at 3, 10, 30 and 60 μM added 1 hour before 20 nM vincristine, 48 hours
Procedure: In this example, the protective effect of the compound 2 of the invention against cellular death induced by vincristine (a vinca alkaloid) is tested using a well-known flow cytometry cell death assay based on propidium iodide staining.
To evaluate the protecting effect of compound 2, a Caspase-dependent cellular model is used.
Human HeLa cells are used in this model. HeLa cells (cervical cancer cell line) were obtained from American Type Cell Collection (ATCC), and were cultured in Dulbecco's Modified Eagle Medium (DMEM, High Glucose, GlutaMAX™, Pyruvate) (Gibco, Life technologies), supplemented with 10% FCS and antibiotics (Gibco, Life technologies).
Human HeLa cells are treated with Vincristine (Sigma Aldrich) solubilized in water at 5 mM. Vincristine works partly by binding to the tubulin protein, stopping the cell from separating its chromosomes during the metaphase; the cell then undergoes apoptosis.
Propidium iodide (PI) (Sigma Aldrich) is used to evaluate plasma membrane permeabilisation, a sign of cell death. […]
The cells are then analyzed by flow cytometry with an excitation of 561 nm.
Fluorescence-Activated Cell Sorting was performed using a FACSCalibur cytometer (Becton Dickinson, San Jose, Calif.). For each sample, data from 5,000 Cells were registered and analyzed with the CellQuest Pro™ software (Becton Dickinson). […]

Caspase-3 = target: T1, Caspase-3 (Homo sapiens, UniProt P42574); assay: Caspase-3 inhibition assay (in vitro), kinact/KI by continuous method; assay type: biochemical; conditions: human recombinant Caspase-3 0.5 nM, substrate Ac-DEVD-AMC, 37° C.; read-out: Inactivation constant kinact/KI Caspase-3 (converted)
T1 construct: the Caspase-2 and Caspase-3 are human recombinant active enzymes; purchased R&D Systems 707-C3-010/CF
T1 sequence (P42574 29-175 limits assumed): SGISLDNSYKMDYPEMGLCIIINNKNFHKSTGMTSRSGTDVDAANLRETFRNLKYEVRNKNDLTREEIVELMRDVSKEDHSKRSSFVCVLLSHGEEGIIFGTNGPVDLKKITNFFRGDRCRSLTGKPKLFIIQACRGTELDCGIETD
T1 sequence (P42574 176-277 limits assumed): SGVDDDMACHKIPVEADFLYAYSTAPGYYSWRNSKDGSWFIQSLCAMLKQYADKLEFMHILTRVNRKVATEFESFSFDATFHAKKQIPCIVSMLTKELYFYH
Source text: (§1) The efficiency of the compound 2 of the invention to inhibit Caspase-2 and Caspase-3 has been evaluated by using the below explained protocol.
(§2) The efficiency of the comparative compound Δ2Me-TRP601, that is an already known group II Caspase inhibitor (inhibitor of Caspase-2, Caspase-3 and Caspase-7), has been assessed by a similar protocol described in Chauvier et al., 2011 Cell Death Dis 2011, 2:e203.
In this example, the Caspase-2 and Caspase-3 are human recombinant active enzymes that are respectively provided by Enzo Life® (ALX-201-057-U100) and R&D Systems® (707-C3-010/CF). […]
The peptide substrates used for the enzymatic activity measurements are Ac-DEVD-AMC and Ac-VDVAD-AMC commercialized by EnzoLife® (respectively referenced ALX-260-031-M005 and ALX-260-060-M005). […] The releasing of AMC enables to follow the enzymatic activity in fluorescence unit RFU over time in a 96-wells microplate (COSTAR 3915).
The fluorescence values are measured at 37° C. with a spectrofluorometer with a microplate reader BMG FLUOstar OPTIMA. […]
The inhibitory properties of the tested compounds are evaluated by the determination of the kinact/KI ratio regarding either Caspase-2 or Caspase-3 wherein: • kinact is the maximal inactivation rate constant, and • KI is the dissociation constant according to: […]
(§3) The activities of the enzyme are measured between 45 and 60 minutes. […]

Caspase-2 = target: T2, Caspase-2 (Homo sapiens, UniProt P42575); assay: Caspase-2 inhibition assay (in vitro), kinact/KI by continuous method; assay type: biochemical; conditions: for kinact/KI: human recombinant Caspase-2 0.1 nM, substrate Ac-VDVAD-AMC, 37° C., read-out: Inactivation constant kinact/KI Caspase-2 (converted); for times more efficient to inactivate Caspase-2 than to inactivate Caspase-3 (selectivity): ratio of kinact/KI Caspase-2 versus Caspase-3
T2 construct: the Caspase-2 and Caspase-3 are human recombinant active enzymes; purchased Enzo Life ALX-201-057-U100
T2 sequence (P42575 170-325 limits assumed): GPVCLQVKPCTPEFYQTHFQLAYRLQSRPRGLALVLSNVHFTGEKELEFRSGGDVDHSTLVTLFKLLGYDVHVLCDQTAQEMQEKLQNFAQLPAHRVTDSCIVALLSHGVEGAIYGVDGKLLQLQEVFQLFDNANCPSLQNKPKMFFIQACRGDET
T2 sequence (P42575 348-452 limits assumed): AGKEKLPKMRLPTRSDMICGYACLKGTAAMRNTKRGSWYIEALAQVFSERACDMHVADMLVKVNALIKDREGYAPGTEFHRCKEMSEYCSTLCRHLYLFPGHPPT
Source text: as §1, §2
In this example, the Caspase-2 and Caspase-3 are human recombinant active enzymes that are respectively provided by Enzo Life® (ALX-201-057-U100) and R&D Systems® (707-C3-010/CF).
Caspase-2 is used at a final concentration of 0.1 nM in a “Caspase-2 buffer” containing 20 mM HEPES (pH 7.4), 5 mM DTT, 2 mM EDTA, 0.1% CHAPS and 800 mM succinate. Caspase-3 is used at a final concentration of 0.5 nM in a “Caspase-3 buffer” containing 20 mM HEPES (pH 7.4), 0.1% CHAPS, 5 mM DTT, and 2 mM EDTA.
The peptide substrates used for the enzymatic activity measurements are Ac-DEVD-AMC and Ac-VDVAD-AMC commercialized by EnzoLife® (respectively referenced ALX-260-031-M005 and ALX-260-060-M005). They are fluorogenic due to the presence of their AMC (7-amino-4-methylcoumarin) end group. The releasing of AMC enables to follow the enzymatic activity in fluorescence unit RFU over time in a 96-wells microplate (COSTAR 3915).
The fluorescence values are measured at 37° C. with a spectrofluorometer with a microplate reader BMG FLUOstar OPTIMA. This apparatus is driven by the software Biolise® and is equipped with thermoelectric cooling device by Peltier effect. The mathematic analysis of the experimental data are done with the software Kaleidagraph@.
The inhibitory properties of the tested compounds are evaluated by the determination of the kinact/KI ratio regarding either Caspase-2 or Caspase-3 wherein: • kinact is the maximal inactivation rate constant, and • KI is the dissociation constant according to:
Said ratio is measured according to the continuous method (Allison R D. Curr Protoc Protein Sci. 2001 May; Chapter 3:Unit 3.5.; Chauvier et al., 2011 Cell Death Dis 2:e203; Tan et al., J Med Chem 2015, […]).
Briefly, Caspases activities were determined by monitoring the hydrolysis of fluorogenic substrates (λexc=355 nm, λem=460 nm) as a function of time, in the presence of untreated Caspases (control) or Caspases that had been incubated with a test compound, for 30 min minimum at 37° C. using a BMG Fluostar microplate reader (black 96-well microplates) and the initial velocity (V0) was determined from the linear portion of the progress curve.
Substrates and compounds were previously dissolved in DMSO at 10 mM, with the final solvent concentration kept at lower 4% (v/v). V0, relative velocities, KM and IC50 were determined from experimental datas using Mars datas Analysis 2.0 and Kaleidagraph softwares.
Inhibitor binding affinity (dissociation constant, KI) and first-order rate constant (k3) parameters were determined for Caspase-2 and Caspase-3 using the progress curve method. The ratio k3/KI was obtained by fitting the experimental data to the equations (F.U., fluorescence unit): […]
A continuous method of determination of the kinact/KI ratio was used for evaluating the inhibitory activity of the tested compounds against Caspase-2 and Caspase-3.
The reaction mixture is prepared by letting the enzyme and the buffer incubate at 37° C. […]
as §3

Row | Compound | protection of cells against apoptotic death induced by vincristine (percentage of propidium iodide positive cells) (HeLa cells) | kinact/KI (Caspase-3) [M⁻¹ s⁻¹] | efficiency to inhibit Caspase-2 (in words) (Caspase-2; compared with Δ2Me-TRP601) | kinact/KI (Caspase-2) [M⁻¹ s⁻¹] | times more efficient to inactivate Caspase-2 than to inactivate Caspase-3 (selectivity) (Caspase-2)
1 | Cc1ccc2c(c1)CCN(C(=O)[C@@H](NC(=O)[C@H](CC(=O)O)NC(=O)[C@@H](NC(=O)c1ccc3ccccc3n1)C(C)C)C(C)C)[C@@H]2C(=O)N[C@@H](CC(=O)O)C(=O)COc1c(F)cccc1F [Compound 2, (S)-3-((S)-2-((S)-2-((S)-3-carboxy-2-((S)-3-methyl-2-(quinoline-2-carboxamido)butanamido)propanamido)-3-methylbutanoyl)-6-methyl-1,2,3,4-tetrahydroisoquinoline-1-carboxamido)-5-(2,6-difluorophenoxy)-4-oxopentanoic acid] | protects the cells against apoptotic death induced by vincristine in a dose-dependent manner | 30500 | as efficient as Δ2Me-TRP601 to inhibit Caspase-2 | 1.76e+06 | 57 times
2 | CC(C)[C@H](NC(=O)c1ccc2ccccc2n1)C(=O)N[C@@H](CC(=O)O)C(=O)N[C@H](C(=O)N[C@@H](C)C(=O)N[C@@H](CC(=O)O)C(=O)COc1c(F)cccc1F)C(C)C [Δ2Me-TRP-601, reference compound] (Quinaldoyl-VDVA-X1) | – | 1.92e+06 | – | 1.57e+06 | does not exhibit this selectivity
